pIC50, pKd: −log10 of the molar value.
Key:
[1] = Intrinsic clearance in human hepatocytes assessed per million cells at 1 uM incubated for 5 to 90 mins by LC-MS/MS method; assay type: ADME, cell-based, Hepatocyte; settings: read-out: CLH
Salmonella typhimurium [2] = assay: Genotoxicity in Salmonella typhimurium TA98 in presence of aroclor-1254-induced rat S9 fraction by Ames test; assay type: toxicity, organism-based; settings: salmonella enterica subsp. enterica serovar typhimurium
Salmonella typhimurium [3] = assay: Genotoxicity in Salmonella typhimurium TA98 in absence of aroclor-1254-induced rat S9 fraction by Ames test; assay type: toxicity, organism-based; settings: salmonella enterica subsp. enterica serovar typhimurium
TK6 [4] = assay: Genotoxicity in human TK6 cells incubated for 27 hrs in absence of aroclor-1254-induced rat S9 fraction by Giemsa staining dependent optical microscopy based micronucleus test; assay type: toxicity, cell-based; settings: tk6, 27 h
TK6 [5] = assay: Genotoxicity in human-derived p53-competent TK6 cells expressing GADD45a-dependent green fluorescent protein assessed as decrease in cell viability after 48 hrs in absence of Sprague-Dawley rat S9 fraction by FACS analysis; assay type: toxicity, cell-based; settings: tk6, 48 h
[6] = molecular target: T1, Retinoic acid receptor gamma (Homo sapiens, UniProt P13631); assay: (§1) Inverse agonist activity at RARgamma (unknown origin) expressed in human HeLa-derived HG5LN cells transfected with the GAL4 DNA-binding domain fused to the RARgamma ligand-binding domain assessed as inhibition of transcriptional activity after 18 hrs by luminescence-based luciferase reporter gene assay; assay type: cell-based
T1 sequence (P13631 whole entry): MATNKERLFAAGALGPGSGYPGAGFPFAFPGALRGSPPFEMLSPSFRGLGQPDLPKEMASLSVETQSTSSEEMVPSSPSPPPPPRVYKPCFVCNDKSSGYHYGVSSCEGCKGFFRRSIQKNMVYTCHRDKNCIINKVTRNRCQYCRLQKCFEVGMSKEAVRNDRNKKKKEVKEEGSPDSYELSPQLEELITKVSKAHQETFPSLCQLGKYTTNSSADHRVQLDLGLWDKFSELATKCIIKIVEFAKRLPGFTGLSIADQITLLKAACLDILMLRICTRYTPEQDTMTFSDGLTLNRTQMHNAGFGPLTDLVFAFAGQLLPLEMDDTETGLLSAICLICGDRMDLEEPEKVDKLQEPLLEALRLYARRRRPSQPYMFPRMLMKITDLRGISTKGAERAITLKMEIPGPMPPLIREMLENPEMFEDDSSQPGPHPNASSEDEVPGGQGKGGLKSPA

[7] = molecular target: T2, Nuclear receptor ROR-alpha (Homo sapiens, UniProt P35398); assay: as §1, with “RORalpha” for “RARgamma”; assay type: cell-based
T2 sequence (P35398 whole entry): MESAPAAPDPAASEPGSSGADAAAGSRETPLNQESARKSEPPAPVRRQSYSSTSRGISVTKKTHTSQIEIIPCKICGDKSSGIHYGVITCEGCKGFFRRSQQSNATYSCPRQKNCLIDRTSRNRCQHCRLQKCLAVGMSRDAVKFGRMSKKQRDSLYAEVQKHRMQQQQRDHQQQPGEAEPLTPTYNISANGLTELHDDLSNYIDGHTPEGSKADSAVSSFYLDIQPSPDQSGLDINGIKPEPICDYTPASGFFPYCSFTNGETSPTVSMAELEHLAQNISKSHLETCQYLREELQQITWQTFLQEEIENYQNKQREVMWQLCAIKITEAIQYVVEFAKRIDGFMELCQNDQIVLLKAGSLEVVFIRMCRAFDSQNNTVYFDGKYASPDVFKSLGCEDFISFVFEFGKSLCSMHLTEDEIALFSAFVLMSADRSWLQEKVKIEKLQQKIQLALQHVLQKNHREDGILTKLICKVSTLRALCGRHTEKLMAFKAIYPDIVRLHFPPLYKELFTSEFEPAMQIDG

Mus musculus = assay: In vivo inverse agonist activity at RORgamma in wild type BALB/c ByJ Rj mouse model of imiquimod-induced skin inflammation model assessed as attenuation of imiquimod-induced epidermal hyperplasia at 6% administered topically twice daily for 7 days dosed 2 hrs before and 6 hrs after imiquimod administration measured on day 8 by hematoxylin and eosin staining-based histological analysis; assay type: functional
[8] = molecular target: T3, Oxysterols receptor LXR-beta (Homo sapiens, UniProt P55055)
T3 sequence (P55055 whole entry): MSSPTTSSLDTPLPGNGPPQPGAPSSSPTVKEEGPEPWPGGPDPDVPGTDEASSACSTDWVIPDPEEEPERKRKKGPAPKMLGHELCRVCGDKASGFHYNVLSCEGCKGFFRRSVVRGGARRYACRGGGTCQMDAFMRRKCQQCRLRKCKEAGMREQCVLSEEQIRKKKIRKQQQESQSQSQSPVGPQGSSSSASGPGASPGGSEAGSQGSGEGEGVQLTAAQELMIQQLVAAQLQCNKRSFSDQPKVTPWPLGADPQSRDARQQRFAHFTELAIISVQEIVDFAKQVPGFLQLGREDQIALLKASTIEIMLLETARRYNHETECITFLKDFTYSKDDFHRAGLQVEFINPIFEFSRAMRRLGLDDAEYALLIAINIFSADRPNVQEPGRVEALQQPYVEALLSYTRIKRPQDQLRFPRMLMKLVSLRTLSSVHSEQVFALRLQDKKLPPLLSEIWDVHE
Description: Activity at LXRbeta (unknown origin) expressed in human HeLa-derived HG5LN cells transfected with the GAL4 DNA-binding domain fused to the LXRbeta ligand-binding domain assessed as inhibition of transcriptional activity after 18 hrs by luminescence-based luciferase reporter gene assay

Vitamin D3 receptor = molecular target: T4, Vitamin D3 receptor (Homo sapiens, UniProt P11473)
T4 sequence (P11473 whole entry): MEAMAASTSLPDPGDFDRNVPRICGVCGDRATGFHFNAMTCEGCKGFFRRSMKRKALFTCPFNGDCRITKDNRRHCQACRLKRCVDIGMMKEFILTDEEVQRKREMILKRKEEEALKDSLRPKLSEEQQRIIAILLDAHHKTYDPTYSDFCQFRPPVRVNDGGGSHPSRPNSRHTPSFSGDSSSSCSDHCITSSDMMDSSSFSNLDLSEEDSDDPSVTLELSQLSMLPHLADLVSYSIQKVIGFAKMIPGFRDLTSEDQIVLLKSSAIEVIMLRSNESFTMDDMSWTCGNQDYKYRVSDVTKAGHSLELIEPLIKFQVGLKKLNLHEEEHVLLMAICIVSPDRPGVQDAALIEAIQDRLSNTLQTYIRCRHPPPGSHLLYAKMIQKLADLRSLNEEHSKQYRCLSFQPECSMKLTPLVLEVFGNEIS
Description: Activity at VDR expressed in human HeLa-derived HDLN6 cells assessed as inhibition of transcriptional activity after 18 hrs by luminescence-based luciferase reporter gene assay

[9] = molecular target: T5, Peroxisome proliferator-activated receptor gamma (Homo sapiens, UniProt P37231)
T5 sequence (P37231 whole entry): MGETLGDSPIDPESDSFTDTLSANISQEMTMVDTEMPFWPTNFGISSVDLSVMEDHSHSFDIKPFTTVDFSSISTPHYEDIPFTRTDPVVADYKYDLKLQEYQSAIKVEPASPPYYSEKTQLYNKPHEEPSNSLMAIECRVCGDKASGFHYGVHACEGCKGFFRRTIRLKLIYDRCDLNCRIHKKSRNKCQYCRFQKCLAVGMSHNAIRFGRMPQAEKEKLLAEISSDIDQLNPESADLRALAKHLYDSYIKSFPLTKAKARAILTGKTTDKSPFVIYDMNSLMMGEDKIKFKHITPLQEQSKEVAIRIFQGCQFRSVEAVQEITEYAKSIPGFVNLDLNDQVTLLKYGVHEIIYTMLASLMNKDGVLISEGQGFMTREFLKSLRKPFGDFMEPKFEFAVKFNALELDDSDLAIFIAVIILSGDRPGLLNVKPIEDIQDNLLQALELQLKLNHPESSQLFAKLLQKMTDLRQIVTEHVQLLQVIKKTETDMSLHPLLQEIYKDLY
Description: Activity at PPARgamma (unknown origin) expressed in human HeLa-derived HG5LN cells transfected with the GAL4 DNA-binding domain fused to the PPARgamma ligand-binding domain assessed as inhibition of transcriptional activity after 18 hrs by luminescence-based luciferase reporter gene assay

For `CCc1ccc(N(CC(C)C)S(=O)(=O)c2ccc(OCC3CCOCC3)c([S@@](C)(=N)=O)c2)cc1`, the hepatocyte CLint at 1 µM [1] was 180 µL/min/1e6 cells, the Activity (Salmonella typhimurium [2]) was “Non-Toxic” and the Activity (Salmonella typhimurium [3]) was “Non-Toxic”. For the same compound, the Activity (TK6 [4]) was “Non-Toxic”, the Activity (TK6 [5]) was “Non-Toxic” and the pIC50 [6] was < 5.00. The pIC50 [7] was < 5.00, the Activity (Mus musculus) was 63% and the pKd [8] was < 5.00. For the same compound, the pKd (Vitamin D3 receptor) was < 5.00 and the pKd [9] was < 5.00.

— ChEMBL document CHEMBL4219169, “Sulfoximines as potent RORγ inverse agonists” (Bioorg Med Chem Lett, 2018)
